Experimental data published in ChEMBL document CHEMBL1135967, “Potent inhibitors of farnesyltransferase and geranylgeranyltransferase-I” (Bioorg Med Chem Lett, 2002).

How the values were obtained:
[1] = molecular target: T1, Geranylgeranyl transferase type I (Homo sapiens, UniProt P49354+P53609); experiment: Inhibition of the human Geranylgeranyl transferase type I catalyzed incorporation of [3H]GGPP into a biotinylated peptide corresponding to the C-terminus of human K-Ras.; assay type: functional
[2] = molecular target: Protein farnesyltransferase (Bos taurus, UniProt P29702+P49355); experiment: Inhibition of Farnesyltransferase catalyzed incorporation of [3H]-FPP into recombinant Ras-CVIM.; assay type: functional
[3] = molecular target: Protein farnesyltransferase; experiment: Displacement of radiolabeled FTI from Farnesyltransferase in v-Ha-ras-transformed Rat1 cells.; assay type: cell-based
[4] = molecular target: T1, Geranylgeranyl transferase type I; experiment: Inhibition of geranylgeranylation of Rap1a in PSN-1 cells; assay type: functional, cell-based
[5] = molecular target: Protein farnesyltransferase (Homo sapiens, UniProt P49354+P49356); experiment: Inhibition of HDJ2 farnesylation in PSN-1 cells; assay type: functional, cell-based

Structure (SMILES) | IC50 [1] | IC50 [2] | IC50 [3] | EC50 [4] | EC50 [5]
COc1cc(C(F)(F)F)ccc1-c1ccc(Cn2cncc2CN2CCN(c3cccc(Cl)c3)C(=O)C2)cc1 | 1860 nM | 392 nM |  |  | 
O=C1CN(Cc2cncn2Cc2ccc(-c3ccccc3)cc2)CCN1c1cccc(Cl)c1 | 1390 nM | 12 nM | 1600 nM |  | 
N#Cc1ccc2cc1Oc1ccc3cccc(c3c1)N1CCN(CCc3cncn3C2)CC1=O | 16 nM | 0.25 nM | 0.19 nM |  | 
O=C1CN(Cc2cncn2Cc2ccc(-c3ccc(C(F)(F)F)cc3)nc2)CCN1c1cccc(Cl)c1 | 509 nM | 14 nM | 159 nM |  | 
O=C1CN(Cc2cncn2Cc2ccc(-c3cccc(Cl)c3)cc2)CCN1c1cccc(Cl)c1 | 8450 nM | 17 nM |  |  | 
O=C1CN(Cc2cncn2Cc2ccc(-c3ccc(Cl)cc3)cc2)CCN1c1cccc(Cl)c1 | 210 nM | 8.7 nM | 193 nM |  | 
O=C1CN(Cc2cncn2Cc2ccc(-c3ccc(OC(F)(F)F)cc3)nc2)CCN1c1cccc(Cl)c1 | 560 nM | 52 nM |  |  | 
O=C1CN(Cc2cncn2Cc2ccc(-c3ccc(Cl)cc3)nc2)CCN1c1cccc(Cl)c1 | 2300 nM | 19 nM | 250 nM |  | 
O=C1CN2CCc3cncn3Cc3ccc(-c4ccc(C(F)(F)F)cc4)c(c3)Oc3ccc4cccc(c4c3)N1CC2 | 15.6 nM | 2.1 nM | 1.1 nM |  | 
O=C1CN2CCc3cncn3Cc3ccc(Br)c(c3)Oc3ccc4cccc(c4c3)N1CC2 | 161 nM | 1.2 nM | 2 nM |  | 
COc1cc(Cn2cncc2CCN2CCN(c3cccc(Cl)c3)C(=O)C2)ccc1-c1ccc(C(F)(F)F)cc1 | 151 nM | 0.17 nM | 1.2 nM | 3400 nM | 28 nM
O=C1CN(Cc2cncn2Cc2ccc(-c3ccc(F)cc3)cc2)CCN1c1cccc(Cl)c1 | 1340 nM | 15 nM | 662 nM |  | 
O=C1CN2CCc3cncn3Cc3ccc(CCCCC(F)(F)F)c(c3)Oc3ccc4cccc(c4c3)N1CC2 | 60 nM | 3.1 nM | 0.48 nM | 800 nM | 6.9 nM
O=C1CN(Cc2cncn2Cc2ccc(-c3ccc(C(F)(F)F)cc3)cc2)CCN1c1cccc(Cl)c1 | 140 nM |  | 29 nM |  | 
COc1cc(Cn2cncc2CN2CCN(c3cccc(Cl)c3)C(=O)C2)ccc1-c1ccc(C(F)(F)F)cc1 | 70 nM | 1.6 nM | 12 nM |  | 
O=C1CN2CCc3cncn3Cc3cccc(c3)Oc3ccc4cccc(c4c3)N1CC2 | 509 nM | 8 nM |  |  | 
O=C1CN(Cc2cncn2Cc2ccc(-c3cc(C(F)(F)F)cc(C(F)(F)F)c3)cc2)CCN1c1cccc(Cl)c1 | 1870 nM | 3500 nM |  |  | 
O=C1CN2CCc3cncn3Cc3ccc(C#CCCC(F)(F)F)c(c3)Oc3ccc4cccc(c4c3)N1CC2 | 4.8 nM | 6.1 nM | 0.81 nM |  | 
O=C1CN(Cc2cncn2Cc2ccc(-c3cccc(C(F)(F)F)c3)cc2)CCN1c1cccc(Cl)c1 | 2680 nM | 410 nM | 662 nM |  | 
O=C1CN(Cc2cncn2Cc2ccc(-c3cc(Cl)cc(Cl)c3)cc2)CCN1c1cccc(Cl)c1 | 3030 nM | 35 nM | 600 nM |  | 
CCCCc1ccc2cc1Oc1ccc3cccc(c3c1)N1CCN(CCc3cncn3C2)CC1=O | 2480 nM | 10.3 nM |  |  | 
N#Cc1ccc(Cn2cncc2CN2CCN(c3cccc(Cl)c3)C(=O)C2)cc1 [L-778123 FREE BASE] |  | 2 nM |  |  | 
